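Assay format: 96-well plates, 48-hour exposure. GI50 = concentration required for 50% inhibition of growth.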 Calls of active or inactive are those of the source. Cut-off read from the data, not from the text of the source: active = GI50 up to about 1.1 µM and inactive = higher.
Assays:
Test in all cases: NCI-60 cell line screen, 48 h
SNB-19 = system: SNB-19
SF-268 = system: SF-268
OVCAR-8 = system: OVCAR-8
A498 = system: A498
NCI-H460 = system: NCI-H460
SK-MEL-5 = system: SK-MEL-5
OVCAR-4 = system: OVCAR-4
HOP-62 = system: HOP-62
UACC-257 = system: UACC-257
KM12 = system: KM12
SK-MEL-2 = system: SK-MEL-2
OVCAR-5 = system: OVCAR-5
U-251 = system: U-251
A549 = system: A549
MOLT-4 = system: MOLT-4
RXF 393 = system: RXF 393
DMS-273 = system: DMS-273
HCC 2998 = system: HCC 2998
SR = system: SR
786-0 = system: 786-0
COLO 205 = system: COLO 205
SK-OV-3 = system: SK-OV-3
HCT-116 = system: HCT-116
TK-10 = system: TK-10
OVCAR-3 = system: OVCAR-3
SNB-75 = system: SNB-75
DMS-114 = system: DMS-114
HL-60 = system: HL-60
NCI-H23 = system: NCI-H23
DLD-1 = system: DLD-1
RPMI-8226 = system: RPMI-8226
K562 = system: K562
Malme-3M = system: Malme-3M
M19-MEL = system: M19-MEL
EKVX = system: EKVX
KM-20L2 = system: KM-20L2
IGROV-1 = system: IGROV-1
HT-29 = system: HT-29
UO-31 = system: UO-31
NCI-H226 = system: NCI-H226
SN12C = system: SN12C
SF-295 = system: SF-295
CAKI-1 = system: CAKI-1
SF-539 = system: SF-539
LOX IMVI = system: LOX IMVI
SK-MEL-28 = system: SK-MEL-28
ACHN = system: ACHN
M14 = system: M14
HCT-15 = system: HCT-15
SW-620 = system: SW-620
XF498 = system: XF498
SNB-78 = system: SNB-78
NCI-H522 = system: NCI-H522
UACC-62 = system: UACC-62
LXFL 529 = system: LXFL 529
CCRF-CEM = system: CCRF-CEM

Cn1c2ccccc2n2c(=O)c3c(c(C#N)c12)CCCC3
GI50 (SNB-19): > 100 µM (inactive) | GI50 (SF-268): > 100 µM (inactive) | GI50 (OVCAR-8): > 100 µM (inactive) | GI50 (A498): > 100 µM (inactive) | GI50 (NCI-H460): > 100 µM (inactive) | GI50 (SK-MEL-5): > 100 µM (inactive) | GI50 (OVCAR-4): > 100 µM (inactive) | GI50 (HOP-62): > 100 µM (inactive) | GI50 (UACC-257): > 100 µM (inactive) | GI50 (KM12): > 100 µM (inactive) | GI50 (SK-MEL-2): > 100 µM (inactive) | GI50 (OVCAR-5): > 100 µM (inactive) | GI50 (U-251): > 100 µM (inactive) | GI50 (A549): > 100 µM (inactive) | GI50 (MOLT-4): > 100 µM (inactive) | GI50 (RXF 393): > 100 µM (inactive) | GI50 (DMS-273): > 100 µM (inactive) | GI50 (HCC 2998): > 100 µM (inactive) | GI50 (SR): > 100 µM (inactive) | GI50 (786-0): > 100 µM (inactive) | GI50 (COLO 205): > 100 µM (inactive) | GI50 (SK-OV-3): > 100 µM (inactive) | GI50 (HCT-116): > 100 µM (inactive) | GI50 (TK-10): > 100 µM (inactive) | GI50 (OVCAR-3): > 100 µM (inactive) | GI50 (SNB-75): 0.792 µM (active) | GI50 (DMS-114): > 100 µM (inactive) | GI50 (HL-60): > 100 µM (inactive) | GI50 (NCI-H23): > 100 µM (inactive) | GI50 (DLD-1): > 100 µM (inactive) | GI50 (RPMI-8226): > 100 µM (inactive) | GI50 (K562): > 100 µM (inactive) | GI50 (Malme-3M): > 100 µM (inactive) | GI50 (M19-MEL): > 100 µM (inactive) | GI50 (EKVX): > 100 µM (inactive) | GI50 (KM-20L2): > 100 µM (inactive) | GI50 (IGROV-1): > 100 µM (inactive) | GI50 (HT-29): > 100 µM (inactive) | GI50 (UO-31): > 100 µM (inactive) | GI50 (NCI-H226): > 100 µM (inactive) | GI50 (SN12C): > 100 µM (inactive) | GI50 (SF-295): > 100 µM (inactive) | GI50 (CAKI-1): > 100 µM (inactive) | GI50 (SF-539): > 100 µM (inactive) | GI50 (LOX IMVI): > 100 µM (inactive) | GI50 (SK-MEL-28): > 100 µM (inactive) | GI50 (ACHN): > 100 µM (inactive) | GI50 (M14): > 100 µM (inactive) | GI50 (HCT-15): > 100 µM | GI50 (SW-620): > 100 µM (inactive) | GI50 (XF498): > 100 µM (inactive) | GI50 (SNB-78): > 100 µM (inactive)

Oc1nnc2c(-c3ccccc3)n[nH]c2n1
GI50 (SNB-19): > 100 µM (inactive) | GI50 (SF-268): > 100 µM (inactive) | GI50 (OVCAR-8): > 100 µM (inactive) | GI50 (A498): > 100 µM (inactive) | GI50 (NCI-H460): > 100 µM (inactive) | GI50 (NCI-H522): > 100 µM (inactive) | GI50 (OVCAR-4): > 100 µM (inactive) | GI50 (HOP-62): > 100 µM (inactive) | GI50 (UACC-257): > 100 µM (inactive) | GI50 (KM12): > 100 µM (inactive) | GI50 (SK-MEL-2): > 100 µM (inactive) | GI50 (UACC-62): > 100 µM (inactive) | GI50 (OVCAR-5): > 100 µM (inactive) | GI50 (U-251): > 100 µM (inactive) | GI50 (A549): 14.2 µM (inactive) | GI50 (MOLT-4): > 100 µM (inactive) | GI50 (RXF 393): > 100 µM (inactive) | GI50 (DMS-273): > 100 µM (inactive) | GI50 (HCC 2998): > 100 µM (inactive) | GI50 (SR): > 100 µM (inactive) | GI50 (786-0): 15.5 µM (inactive) | GI50 (COLO 205): > 100 µM (inactive) | GI50 (HCT-116): > 100 µM (inactive) | GI50 (TK-10): > 100 µM (inactive) | GI50 (OVCAR-3): > 100 µM (inactive) | GI50 (LXFL 529): > 100 µM (inactive) | GI50 (DMS-114): > 100 µM (inactive) | GI50 (HL-60): > 100 µM (inactive) | GI50 (NCI-H23): > 100 µM (inactive) | GI50 (DLD-1): > 100 µM (inactive) | GI50 (RPMI-8226): > 100 µM (inactive) | GI50 (K562): > 100 µM (inactive) | GI50 (EKVX): 16.4 µM (inactive) | GI50 (KM-20L2): > 100 µM (inactive) | GI50 (IGROV-1): 94.4 µM (inactive) | GI50 (HT-29): > 100 µM (inactive) | GI50 (UO-31): > 100 µM (inactive) | GI50 (NCI-H226): > 100 µM (inactive) | GI50 (SN12C): > 100 µM (inactive) | GI50 (SF-295): > 100 µM (inactive) | GI50 (CAKI-1): 45.5 µM (inactive) | GI50 (CCRF-CEM): > 100 µM (inactive) | GI50 (SF-539): 15 µM (inactive) | GI50 (LOX IMVI): > 100 µM (inactive) | GI50 (SK-MEL-28): > 100 µM (inactive) | GI50 (ACHN): > 100 µM (inactive) | GI50 (M14): > 100 µM (inactive) | GI50 (HCT-15): > 100 µM | GI50 (SW-620): > 100 µM (inactive) | GI50 (SNB-78): > 100 µM (inactive)
